According to patent US20230072421A1, “TARGETED RADIOPHARMACEUTICALS FOR THE DIAGNOSIS AND TREATMENT OF PROSTATE CANCER” (Bayer AS, priority 2019, published 2023):

Experiments:
[1] = tested on: VCaP cells; experiment: Cell proliferation assay (CellTiter-Glo, 5-day exposure), VCaP; assay type: cell-based; settings: 4000 cells/well, Th-227 labelled at 375 kBq/nmol, mean of 1 to 6 experiments
Method in brief: (§1)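 Growth inhibition by radiolabelled (Th-227) PSMA small-molecule ligands is measured as ATP luminescence after 5 days of treatment, referenced to a day-0 reading from sister plates. VCaP are seeded at 4000 cells/well, the remaining lines at 1000 cells/well.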

[2] = tested on: C4-2 cells; experiment: Cell proliferation assay (CellTiter-Glo, 5-day exposure), C4-2; assay type: cell-based; settings: C4-2, 1000 cells/well, Th-227 labelled at 375 kBq/nmol, mean of 1 to 6 experiments
Method in brief: as §1

[3] = tested on: 22Rv1 cells; experiment: Cell proliferation assay (CellTiter-Glo, 5-day exposure), 22Rv1; assay type: cell-based; settings: 22Rv1, 1000 cells/well, Th-227 labelled at 375 kBq/nmol, mean of 1 to 6 experiments
Method in brief: as §1

[4] = tested on: LNCaP cells; experiment: Cell proliferation assay (CellTiter-Glo, 5-day exposure), LNCaP; assay type: cell-based, human; settings: LNCaP, 1000 cells/well; Th-227 labelled at 375 kBq/nmol; 5-day exposure; mean of 1 to 6 experiments
Experimental: Inhibition of cell proliferation of Thorium-227 labeled PMSA SMOL ligands was tested different prostate cancer cell lines, namely 22Rv1, VCaP, C4-2 (all from ATCC, Manassas, Va., USA) and LNCaP (DMSZ, Braunschweig). Cells were seeded using the following conditions in 384 well plates (Corning) in 30 μl of growth media at 4000 cells/well for VCaP cells and 1000 cells/well for 22Rv1, C4-2 and LNCaP cells.
Cells were cultivated an incubator at 37° C. and 5% C02 over night. On the following days cells were treated in triplicates with serial dilutions of PSMA-SMOLs labeled with Th-227 at a specific activity of 375 kBq/nmol (RCP>70% as assessed by iTLC analysis; compounds where RCP was between 50-70% in individual experiments are marked with an * in the table) using a D300e Digital Dispenser (Tecan). In sister plates cell viability at treatment start (d=0) was determined using CellTiter-Glo® assay (CTG, Promega, Madison, Wis., USA), by adding 30 μl per well CTG solution, incubation for 10 min and reading of Luminescence in a PheraStarFSX instrument (BMG Labtech). After a 5-day exposure in the presenced of test compounds, cell viability of treated or untreated control cells was determined again using CellTiter-Glo® assay (Promega, Madison, Wis., USA). […] The DRC software is a Biobook Spreadsheet that was developed by Bayer AG and Bayer Business Services on the IDBS E-Workbook Suite platform (IDBS: ID Business Solutions Ltd., Guildford, UK).

[5] = biological target: T1, PSMA-expressing LNCaP cells (Homo sapiens, UniProt Q04609); experiment: Internalization assay (membrane bound and internalized Th-227); assay type: cell-based; settings: 10 nM radiolabeled compound, Th-227 at 375 kBq/nmol, triplicates; for Internalized in LNCaP fmol/10^6 cells 30 min / Membrane bound in LNCaP fmol/10^6 cells 30 min: 30 min incubation; for Internalized in LNCaP fmol/10^6 cells 2 h / Membrane bound in LNCaP fmol/10^6 cells 2 h: 2 h incubation
T1 construct: PSMA-expressing LNCaP cells; endogenous in cells; host or cells: LNCaP
T1 sequence (Q04609 whole entry): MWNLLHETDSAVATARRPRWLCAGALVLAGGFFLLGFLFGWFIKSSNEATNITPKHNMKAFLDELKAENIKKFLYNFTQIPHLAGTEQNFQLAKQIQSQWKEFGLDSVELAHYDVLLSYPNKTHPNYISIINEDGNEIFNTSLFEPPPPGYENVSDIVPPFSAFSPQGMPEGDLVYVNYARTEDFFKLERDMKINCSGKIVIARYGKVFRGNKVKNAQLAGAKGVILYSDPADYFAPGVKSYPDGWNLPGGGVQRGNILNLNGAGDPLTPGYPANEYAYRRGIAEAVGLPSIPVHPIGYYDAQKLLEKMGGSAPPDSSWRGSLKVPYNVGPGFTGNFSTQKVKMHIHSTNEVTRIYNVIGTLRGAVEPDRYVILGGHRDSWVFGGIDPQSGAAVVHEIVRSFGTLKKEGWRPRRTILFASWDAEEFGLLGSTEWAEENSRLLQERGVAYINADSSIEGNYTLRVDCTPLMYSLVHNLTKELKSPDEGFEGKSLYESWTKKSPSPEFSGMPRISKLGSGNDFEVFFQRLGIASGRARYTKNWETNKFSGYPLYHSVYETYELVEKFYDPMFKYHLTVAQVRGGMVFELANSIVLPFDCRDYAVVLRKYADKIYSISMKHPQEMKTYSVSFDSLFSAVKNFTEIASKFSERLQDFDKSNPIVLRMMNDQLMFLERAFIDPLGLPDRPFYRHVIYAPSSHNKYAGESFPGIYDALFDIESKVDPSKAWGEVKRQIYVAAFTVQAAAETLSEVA
Experimental: For internalization assays 24 well plates (#3526, Corning) were coated with 200 μl Poly-L-Lysine (0.1 mg/ml, #3438-100-01, Fa. Cultrex) per well for 2 h at 37° C. […] Cells were incubated at 37° C. and 5% CO2 over night. On the following day 400 μl of the media were removed and a total of 200 μl growth medium added supplemented with PSMA-SMOLs labeled with Th-227 at 375 kBq/nmol in triplicates. Radiochemical purity of the labeling was analyzed by instant thin layer chromatography and found to be above 70% for all compounds used. The final concentration of radiolabeled SMOLs was in the test wells was 10 nM. Cells were incubated for 30 min or 2 h. After the incubation time supernatants were taken off and cells washed with PBS. Thereafter cells were washed twice with 0.2 ml 50 mM Glycine-HCl buffer (#55097, Sigma Aldrich) and once with PBS and the washing solutions combined in counting vials (#TK75-018, Fa. Corning) and subjected to gamma counting (1470 Wizard automatic gamma counter, Wallac). The resulting counts were attributed to membrane bound radioactivity. Cells were then lysed with 500 μl 0.3N NaOH (#181691.1211, Fa. PanReac AppliChem ITW Reagents) followed by another wash with 500 μl PBS. The NaOH lysate as well as the final wash were combined in vials and subjected to gamma counting as described above. Measured radioactivity was attributed to internalized fraction. Results were calculated as fmol of Th-227 per/10^cells in the membrane bound and internalized fractions from triplicate values.

Cc1cc(C(=O)NCCN(CCCN(CCNC(=O)c2cc(C)n(CC(=O)NCc3ccc(C(=O)N[C@@H](Cc4ccc5ccccc5n4)C(=O)NCCCC[C@H](NC(=O)N[C@@H](CCC(=O)O)C(=O)O)C(=O)O)nc3)c(=O)c2[O-])CCNC(=O)c2cc(C)n(CC(=O)NCc3ccc(C(=O)N[C@@H](Cc4ccc5ccccc5n4)C(=O)NCCCC[C@H](NC(=O)N[C@@H](CCC(=O)O)C(=O)O)C(=O)O)nc3)c(=O)c2[O-])CCNC(=O)c2cc(C)n(CC(=O)NCc3ccc(C(=O)N[C@@H](Cc4ccc5ccccc5n4)C(=O)NCCCC[C@H](NC(=O)N[C@@H](CCC(=O)O)C(=O)O)C(=O)O)nc3)c(=O)c2[O-])c([O-])c(=O)n1CC(=O)NCc1ccc(C(=O)N[C@@H](Cc2ccc3ccccc3n2)C(=O)NCCCC[C@H](NC(=O)N[C@@H](CCC(=O)O)C(=O)O)C(=O)O)nc1.[227Th+4] [34-C tetramer-227Th]
Proliferation assay on cancer cell lines by TTCs Default Pivot #3 IC50 [kBq/mL] VCap 4000cells 375kBq/nmol (mean) [1]: 1.96 kBq/mL | Proliferation assay on cancer cell lines by TTCs Default Pivot #3 IC50 [kBq/mL] C4-2 1000cells 375kBq/nmol (mean) [2]: 1.55 kBq/mL | Proliferation assay on cancer cell lines by TTCs Default Pivot #3 IC50 [kBq/mL] 22Rv1 1000cells 375kBq/nmol (mean) [3]: 1.34 kBq/mL | Proliferation assay on cancer cell lines by TTCs Default Pivot #3 IC50 [kBq/mL] LnCap 1000cells 375kBq/nmol (mean) [4]: 0.03 kBq/mL | Internalized in LNCaP fmol/10^6 cells 30 min [5]: 117 fmol/10^6 cells | Membrane bound in LNCaP fmol/10^6 cells 30 min [5]: 82 fmol/10^6 cells | Internalized in LNCaP fmol/10^6 cells 2 h [5]: 315 fmol/10^6 cells | Membrane bound in LNCaP fmol/10^6 cells 2 h [5]: 183 fmol/10^6 cells

Cn1ccc2c(c1=O)[O][Th]13[O]c4c(ccn(C)c4=O)C(=O)NCCN(CCNC2=O)CC(Cc2ccc(NC(=O)CCC(=O)N[C@H](CCCNC(=N)N)C(=O)N[C@H](CCCNC(=N)N)C(=O)NC[C@H]4CC[C@H](C(=O)N[C@@H](Cc5ccc6ccccc6c5)C(=O)NCCCC[C@H](NC(=O)N[C@@H](CCC(=O)O)C(=O)O)C(=O)O)CC4)cc2)CN(CCNC(=O)c2ccn(C)c(=O)c2[O]1)CCNC(=O)c1ccn(C)c(=O)c1[O]3 (stereo partly shown) [Example 46-E-227Th]
Proliferation assay on cancer cell lines by TTCs Default Pivot #3 IC50 [kBq/mL] VCap 4000cells 375kBq/nmol (mean) [1]: 1.37 kBq/mL | Proliferation assay on cancer cell lines by TTCs Default Pivot #3 IC50 [kBq/mL] C4-2 1000cells 375kBq/nmol (mean) [2]: 0.95 kBq/mL | Proliferation assay on cancer cell lines by TTCs Default Pivot #3 IC50 [kBq/mL] 22Rv1 1000cells 375kBq/nmol (mean) [3]: 0.68 kBq/mL | Proliferation assay on cancer cell lines by TTCs Default Pivot #3 IC50 [kBq/mL] LnCap 1000cells 375kBq/nmol (mean) [4]: 0.18 kBq/mL | Internalized in LNCaP fmol/10^6 cells 30 min [5]: 34 fmol/10^6 cells | Membrane bound in LNCaP fmol/10^6 cells 30 min [5]: 63 fmol/10^6 cells | Internalized in LNCaP fmol/10^6 cells 2 h [5]: 104 fmol/10^6 cells | Membrane bound in LNCaP fmol/10^6 cells 2 h [5]: 234 fmol/10^6 cells
